Patent publication US20260138959A1, “QUINAZOLINE DERIVATIVE COMPOUND AND USE THEREOF” (VORONOI INC., priority 2021, published 2026)

Legend:
c-KIT V560G/D816V = test: Proliferation inhibitory activity on Ba/F3 cell (CellTiter-Glo, 72 hours), c-KIT V560G/D816V; type: cell-based; conditions: Mus musculus, BaF3, c-KIT V560G/D816V cells, read-out: Cell (nM) c-KIT V560G/D816V (GI50 class)
Summary of the method: (§1)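 Ba/F3 lines dependent on the indicated kinase, seeded at 3×10^3 cells/well, treated with 12 three-fold dilutions at 0.00005–10 μM final for 72 h at 37 °C. Viability read by CellTiter-Glo luminescence relative to DMSO vehicle; GI50 derived from curve fit.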

Ba/F3-c-KIT(D816V) = test: Proliferation inhibitory activity on Ba/F3 cell (CellTiter-Glo, 72 hours), c-KIT(D816V); type: cell-based; conditions: Mus musculus, BaF3, read-out: Ba/F3 (nM) c-KIT (D816V) (GI50 class)
Summary of the method: as §1

human PDGFR-β(wt) = molecular target: T1, human PDGFR-β(wt) (Homo sapiens, UniProt P09619); test: Enzyme inhibitory activity, ADP-Glo kinase assay, PDGFR-β(wt); type: biochemical; conditions: read-out: PDGFR-β (IC50 class)
T1 construct: purchased Signalchem P13-11G
Procedure: In order to evaluate the inhibitory activity of the compounds synthesized according to the above examples on PDGFR-α(wt), PDGFR-β(wt), c-KIT(wt), and c-KIT(D816V) kinases, the following method was performed. The compounds of examples were reacted with purified human PDGFR-α(wt) (Signalchem #P12-18G) enzyme, human PDGFR-β(wt) (Signalchem #P13-11G) enzyme, human c-KIT(wt) (Signalchem #K06-11BG) enzyme, human c-KIT(D816V) (Signalchem #C06-12LG) enzyme, and the enzyme inhibitory abilities were evaluated by the following method.
The reaction buffer was used as a composition of 40 mM Tris-HCl pH7.4, 20 mM MgCl2, 0.5 mg/ml BSA, 50 μM DTT, and the reactions of all the tests were carried out on the reaction buffer. The compound was diluted in 12 steps using a serial dilution method from a 10 mM DMSO stock, and the enzyme activity was measured at a final compound concentration of 10˜0.00005645 μM. During the test, the enzyme activity was confirmed using in vitro ADP-Glo™ kinase assay (Promega) after reacting with the proper concentration of human PDGFR-α(wt) enzyme, human PDGFR-β(wt), human c-KIT(wt) enzyme, and human c-KIT(D816V) enzyme with purified ATP and enzyme substrate at 25° C. for 1˜2 hours. At a ratio of 2:2:1, an enzyme-active reaction solution, an ADP-Glo reaction solution, and an enzyme-active detection solution were reacted to measure the inhibition of the enzyme's activity with luminoscence. Based on the […] of the enzyme activity of the solvent control that was not treated with the compound, the degree of enzyme activity inhibition was calculated according to the treatment concentration of each compound, and the concentration of each compound that inhibits 50% of enzyme activity was determined as IC50 (nM) value and the value was obtained by using GraphPad Prism 8.3.0 (GraphPad software Inc., San Diego) software. (A: IC50≤50 nM; B: 50 nM<IC50≤100 nM; C: 100 nM<IC50≤500 nM; D: IC50>500 nM).

T1 sequence (P09619 33-1106): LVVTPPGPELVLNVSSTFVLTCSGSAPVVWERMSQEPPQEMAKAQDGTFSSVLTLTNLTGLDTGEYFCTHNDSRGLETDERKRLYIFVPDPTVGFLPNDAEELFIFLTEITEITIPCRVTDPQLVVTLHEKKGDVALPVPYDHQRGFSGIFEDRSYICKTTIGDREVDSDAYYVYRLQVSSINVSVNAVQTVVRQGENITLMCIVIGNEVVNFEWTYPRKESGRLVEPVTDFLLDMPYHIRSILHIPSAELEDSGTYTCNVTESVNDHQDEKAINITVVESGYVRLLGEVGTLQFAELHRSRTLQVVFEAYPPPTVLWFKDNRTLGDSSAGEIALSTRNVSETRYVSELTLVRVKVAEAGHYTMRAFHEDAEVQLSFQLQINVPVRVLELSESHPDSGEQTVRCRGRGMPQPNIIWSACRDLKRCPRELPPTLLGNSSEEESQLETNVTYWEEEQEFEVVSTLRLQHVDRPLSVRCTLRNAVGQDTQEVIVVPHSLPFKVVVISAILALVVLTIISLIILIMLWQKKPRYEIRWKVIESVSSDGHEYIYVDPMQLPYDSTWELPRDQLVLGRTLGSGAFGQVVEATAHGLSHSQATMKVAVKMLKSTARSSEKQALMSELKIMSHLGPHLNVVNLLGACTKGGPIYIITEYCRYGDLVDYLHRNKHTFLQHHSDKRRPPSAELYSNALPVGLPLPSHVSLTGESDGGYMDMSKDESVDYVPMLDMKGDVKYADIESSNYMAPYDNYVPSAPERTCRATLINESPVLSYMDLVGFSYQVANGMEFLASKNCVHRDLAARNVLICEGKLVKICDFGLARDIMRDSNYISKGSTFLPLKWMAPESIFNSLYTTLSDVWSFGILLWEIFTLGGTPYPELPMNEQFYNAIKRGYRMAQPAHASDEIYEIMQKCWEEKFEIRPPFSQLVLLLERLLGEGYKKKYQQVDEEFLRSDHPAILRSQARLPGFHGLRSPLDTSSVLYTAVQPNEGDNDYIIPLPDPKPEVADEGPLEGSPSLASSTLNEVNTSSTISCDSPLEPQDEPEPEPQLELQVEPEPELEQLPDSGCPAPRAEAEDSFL

| GI50 (c-KIT V560G/D816V) [nM] | GI50 (Ba/F3-c-KIT(D816V)) [nM] | IC50 (human PDGFR-β(wt)) [nM] | SMILES |
| --- | --- | --- | --- |
| ≤ 200 | ≤ 200 | ≤ 50 | CCN1CCC[C@H](COc2cc3ncnc(-c4ccc(NC(=O)Cc5ccc(C(F)(F)F)cc5)cc4)c3cc2OC)C1 [Example 76, (S)-N-(4-(7-((1-ethylpiperidin-3-yl)methoxy)-6-methoxyquinazolin-4-yl)phenyl)-2-(4-(trifluoromethyl)phenyl)acetamide] |
| ≤ 200 | ≤ 200 | ≤ 50 | COc1ccc(CC(=O)Nc2ccc(-c3ncnc4cc(OCCCN5CCN(C)CC5)c(OC)cc34)cc2)cn1 [Example 81, N-(4-(6-methoxy-7-(3-(4-methylpiperazin-1-yl)propoxy)quinazolin-4-yl)phenyl)-2-(6-methoxypyridin-3-yl)acetamide] |
| ≤ 200 | ≤ 200 | ≤ 50 | COc1cc2c(-c3ccc(NC(=O)Cc4ccc(Cl)c(C(F)(F)F)c4)cc3)ncnc2cc1OCCCN1CCN(C)CC1 [Example 82, 2-(4-chloro-3-(trifluoromethyl)phenyl)-N-(4-(6-methoxy-7-(3-(4-methylpiperazin-1-yl)propoxy)quinazolin-4-yl)phenyl)acetamide] |
| ≤ 200 | – | ≤ 50 | COCCN1CCC(COc2cc3ncnc(-c4ccc(NC(=O)Cc5ccc(C(F)(F)F)nc5)cc4)c3cc2OC)CC1 [Example 96, N-(4-(6-methoxy-7-((1-(2-methoxyethyl)piperidin-4-yl)methoxy)quinazolin-4-yl)phenyl)-2-(6-(trifluoromethyl)pyridin-3-yl)acetamide] |
| ≤ 200 | – | ≤ 50 | COc1cc2c(-c3ccc(NC(=O)Cc4ccc(C(F)(F)F)nc4)cc3)ncnc2cc1OCC1CCN(C)CC1 [Example 101, N-(4-(6-methoxy-7-((1-methylpiperidin-4-yl)methoxy)quinazolin-4-yl)phenyl)-2-(6-(trifluoromethyl)pyridin-3-yl)acetamide] |
| 200 to 500 | ≤ 200 | ≤ 50 | COc1cc2ncnc(-c3ccc(NC(=O)Cc4ccc(C(F)(F)F)cc4)cc3)c2cc1OCCCN1CCOCC1 [Example 129, N-(4-(7-methoxy-6-(3-morpholinopropoxy)quinazolin-4-yl)phenyl)-2-(4-(trifluoromethyl)phenyl)acetamide] |
| – | 200 to 500 | ≤ 50 | COc1cc2ncnc(-c3ccc(NC(=O)Cc4ccc(C(F)(F)F)cc4)cc3)c2cc1OCC1CCCN(C(=O)OC(C)(C)C)C1 (centres unmarked) [Example 130, tert-butyl 3-(((7-methoxy-4-(4-(2-(4-(trifluoromethyl)phenyl)acetamido)phenyl)quinazolin-6-yl)oxy)methyl)piperidin-1-carboxylate] |
| – | 200 to 500 | ≤ 50 | COc1cc2ncnc(-c3ccc(NC(=O)Cc4ccc(C(F)(F)F)cc4)cc3)c2cc1OC1CCN(C(=O)OC(C)(C)C)CC1 [Example 137, tert-butyl 4-((7-methoxy-4-(4-(2-(4-(trifluoromethyl)phenyl)acetamido)phenyl)quinazolin-6-yl)oxy)piperidin-1-carboxylate] |
| – | > 500 | ≤ 50 | COc1cc2ncnc(-c3ccc(NC(=O)Cc4ccc(C(F)(F)F)cc4)cc3)c2cc1OCCCN1CC(CO)(CO)C1 [Example 150] |
| – | – | 50 to 100 | COc1cc2c(-c3ccc(NC(=O)Nc4ccc(Cl)c(C(F)(F)F)c4)cc3)ncnc2cc1OCCCN1CCN(C)CC1 [Example 168, 1-(4-chloro-3-(trifluoromethyl)phenyl)-3-(4-(6-methoxy-7-(3-(4-methylpiperazin-1-yl)propoxy)quinazolin-4-yl)phenyl)urea] |

The next lines start with the compound.

| SMILES | GI50 (c-KIT V560G/D816V) [nM] | GI50 (Ba/F3-c-KIT(D816V)) [nM] | IC50 (human PDGFR-β(wt)) [nM] |
| --- | --- | --- | --- |
| COc1cc2c(-c3ccc(NC(=O)Cc4ccc(C(F)(F)F)cc4)cc3)ncnc2cc1OCCCN1C[C@@H]2C[C@H]1CN2C [Example 32, N-(4-(6-methoxy-7-(3-((1S,4S)-5-methyl-2,5-diazabicyclo[2.2.1]heptane-2-yl)propoxy)quinazolin-4-yl)phenyl)-2-(4-(trifluoromethyl)phenyl)acetamide] | ≤ 200 | ≤ 200 | ≤ 50 |
| COc1cc2c(-c3ccc(NC(=O)Cc4ccc(C(F)(F)F)cc4)cc3)ncnc2cc1OCCCN1C2CC1CN(C)C2 [Example 37, N-(4-(6-methoxy-7-(3-(3-methyl-3,6-diazabicyclo[3.1.1]heptane-6-yl)propoxy)quinazolin-4-yl)phenyl)-2-(4-(trifluoromethyl)phenyl)acetamide] | ≤ 200 | ≤ 200 | ≤ 50 |
| COc1cc2c(-c3ccc(NC(=O)Cc4ccc(C(F)(F)F)cc4)cc3)ncnc2cc1OCC1CCN(C)CC1 [Example 56, N-(4-(6-methoxy-7-((1-methylpiperidin-4-yl)methoxy)quinazolin-4-yl)phenyl)-2-(4-(trifluoromethyl)phenyl)acetamide] | ≤ 200 | – | ≤ 50 |
| COc1cc2c(-c3ccc(NC(=O)Cc4ccc(C(F)(F)F)nc4)cc3)ncnc2cc1OCC1CCNCC1 [Example 59, N-(4-(6-methoxy-7-(piperidin-4-ylmethoxy)quinazolin-4-yl)phenyl)-2-(6-(trifluoromethyl)pyridin-3-yl)acetamide] | – | 200 to 500 | ≤ 50 |
| CCN1CCC(COc2cc3ncnc(-c4ccc(NC(=O)Cc5ccc(C(F)(F)F)nc5)cc4)c3cc2OC)CC1 [Example 63, N-(4-(7-((1-ethylpiperidin-4-yl)methoxy)-6-methoxyquinazolin-4-yl)phenyl)-2-(6-(trifluoromethyl)pyridin-3-yl)acetamide] | ≤ 200 | ≤ 200 | ≤ 50 |
| CCN1CCC(COc2cc3ncnc(-c4ccc(NC(=O)Cc5cccc(C(F)(F)F)c5)cc4)c3cc2OC)CC1 [Example 64, N-(4-(7-((1-ethylpiperidin-4-yl)methoxy)-6-methoxyquinazolin-4-yl)phenyl)-2-(3-(trifluoromethyl)phenyl)acetamide] | ≤ 200 | ≤ 200 | ≤ 50 |
| COc1cc2c(-c3ccc(NC(=O)Cc4ccc(Cl)nc4)cc3)ncnc2cc1OCC1CCNCC1 [Example 69, 2-(6-chloropyridin-3-yl)-N-(4-(6-methoxy-7-(piperidin-4-ylmethoxy)quinazolin-4-yl)phenyl)acetamide] | – | ≤ 200 | ≤ 50 |
| CCN1CCC(COc2cc3ncnc(-c4ccc(NC(=O)Cc5ccc(Cl)nc5)cc4)c3cc2OC)CC1 [Example 70, 2-(6-chloropyridin-3-yl)-N-(4-(7-((1-ethylpiperidin-4-yl)methoxy)-6-methoxyquinazolin-4-yl)phenyl)acetamide] | ≤ 200 | ≤ 200 | ≤ 50 |
| CCN1CCC[C@@H](COc2cc3ncnc(-c4ccc(NC(=O)Cc5ccc(C(F)(F)F)cc5)cc4)c3cc2OC)C1 [Example 74, (R)-N-(4-(7-((1-ethylpiperidin-3-yl)methoxy)-6-methoxyquinazolin-4-yl)phenyl)-2-(4-(trifluoromethyl)phenyl)acetamide] | ≤ 200 | ≤ 200 | ≤ 50 |
| COc1cc2c(-c3ccc(NC(=O)Cc4ccc(C(F)(F)F)cc4)cc3)ncnc2cc1OC[C@H]1CCCNC1 [Example 75, (S)-N-(4-(6-methoxy-7-(piperidin-3-ylmethoxy)quinazolin-4-yl)phenyl)-2-(4-(trifluoromethyl)phenyl)acetamide] | ≤ 200 | ≤ 200 | ≤ 50 |
